Source: patent US6117661A, “Mutant mono-oxygenase cytochrome P450cam” (BG plc, priority 1995, dated 2000)
Positions count from the first letter of the chain named. Names and notes keep the numbering of the source. Values joined by “and” are separate entries in the source; they are usually repeats but may differ in a detail not shown here. Equal entries are not always repeated. Where two headings read alike, the source gives them in different places.

How the values were obtained:
P450cam WT = target: T1, P450cam WT (Pseudomonas putida, UniProt P00183); assay: Product distribution following oxidation of substrates (GC); type: biochemical, P. putida; conditions: for Products (%) WT: label = product
T1 construct: reconstituted with putidaredoxin and putidaredoxin reductase
Protocol: (§1) A buffered solution (50 mM Tris.HCI, pH 7.4), typically 3 ml in volume, containing 10 uM putidaredoxin, 2 uM putidaredoxin reductase, 1 uM cytochrome P-450cam mono-oxygenase (wild-type or mutant), 200 mM KCI, 50 ug/ml bovine liver catalase (Sigma), and 1 mM target organic compound such as cyclohexylbenzene (added as a 0.1 M stock in ethanol) was preincubated at 30° C. for 5 minutes. The enzymatic reaction was initiated by adding NADH to a total concentration of 2 mM. Further four aliquots of NADH (to increase the NADH concentration by 1 mM each time) were added in intervals of 10 minutes, and 30 minutes into the incubation one aliquot of substrate (to increase the concentration by 1 mM) was also added. The reaction was quenched after 60 minutes by adding 0.5 ml chloroform and vortexing the mixture. The phases were separated by centrifugation (4000 g) at 4° C. The chloroform layer was analyzed by gas chromatography.
(§2) For many substrate compounds such as cyclohexylbenzene for which not all the P-450cam-mediated oxidation products are commercially available, the chloroform extracts are evaporated to dryness under a stream of nitrogen. The residues were extracted with hexane and the oxidation products separated by high performance liquid chromatography, eluting with a hexane/isopropanol gradient. The purified products were then identified by mass spectroscopy and particularly nuclear magnetic resonance spectroscopy.
(§3) The NADH concentration can be monitored at 340 nm and, in all cases, more substrates and NADH are added during the incubation.

P450cam Mutant Y96A = P450cam Mutant Y96A (Pseudomonas putida, UniProt P00183, C335A/Y97A); type: binding, P. putida
Wild type P450cam [1] = target: T2, Wild type P450cam (Pseudomonas putida, UniProt P00183); type: binding, P. putida; conditions: for Wild type ΔSpin high/low: -- = no shift, nd = not determined
[2] = target: T3, P450cam active site mutant Y96F (also C334A) (Pseudomonas putida, UniProt P00183, C335A/Y97F); type: biochemical, P. putida; conditions: for Products(%) Y96F: label = product
T3 construct: reconstituted with putidaredoxin and putidaredoxin reductase
Protocol: as §1, §2, §3

[3] = target: T4, P450cam active site mutant Y96A (also C334A) (Pseudomonas putida, UniProt P00183, C335A/Y97A); type: biochemical, P. putida; conditions: for Products(%) Y96A: label = product
T4 construct: reconstituted with putidaredoxin and putidaredoxin reductase
Protocol: as §1, §2, §3

[4] = target: T5, P450cam active site mutant Y96V (also C334A) (Pseudomonas putida, UniProt P00183, C335A/Y97V); type: biochemical, P. putida; conditions: substrate cyclohexylbenzene; for Products (%) Y96V: label = product
T5 construct: reconstituted with putidaredoxin and putidaredoxin reductase
Protocol: as §1, §2, §3

[5] = target: T6, P450cam active site mutant Y96L (also C334A) (Pseudomonas putida, UniProt P00183, C335A/Y97L); type: biochemical, P. putida; conditions: substrate cyclohexylbenzene; for Products (%) Y96L: label = product
T6 construct: reconstituted with putidaredoxin and putidaredoxin reductase
Protocol: as §1, §2, §3

Wild type P450cam [6] = target: T2, Wild type P450cam; assay: Turnover rate measured as NADH consumption rate; type: biochemical, P. putida; conditions: small alkanes; background about 0.07
Protocol: as §1, §3
(§4) Turnover rate measured as NADH consumption rate
(§5) (nmole NADH/nmole P450cam/s).

[7] = target: T7, P450cam Y96A (also contains the C334A mutation) (Pseudomonas putida, UniProt P00183, C335A/Y97A); type: biochemical, P. putida; conditions: small alkanes
T7 construct: reconstituted with putidaredoxin and putidaredoxin reductase
Protocol: as §1, §3, §4, §5

[8] = Protein aggregation upon standing/storage; type: physicochemical; conditions: storage at 4° C., and even in 50% glycerol solutions at -20° C.
Description: The C334A mutation has the obvious benefit of removing unwanted protein dimerisation, thus ensuring the presence of a single species in solution at all times. In addition, we noted a completely unexpected benefit of this mutation. […] Aggregation will also occur during turnover, especially at the higher P-450cam concentrations required in any economically viable industrial application in, for example, synthesis of organic molecules. […] Thus, the C334A mutation has beneficial effects in protein handling, storage, and increased catalyst lifetime.

[9] = Protein dimerisation by anion exchange FPLC and gel filtration; type: physicochemical; conditions: Resource Q FPLC and Superose 12 gel filtration; C334A even at high concentrations (0.1 mM range)
Description: We concluded that wild-type P-450cam underwent dimerisation by intermolecular S--S disulphide bond formation between the surface cysteine 334 on two protein molecules.

[10] = -- = no shift, nd = not determined

T5 sequence (P00183 2-415 Y97V/C335A): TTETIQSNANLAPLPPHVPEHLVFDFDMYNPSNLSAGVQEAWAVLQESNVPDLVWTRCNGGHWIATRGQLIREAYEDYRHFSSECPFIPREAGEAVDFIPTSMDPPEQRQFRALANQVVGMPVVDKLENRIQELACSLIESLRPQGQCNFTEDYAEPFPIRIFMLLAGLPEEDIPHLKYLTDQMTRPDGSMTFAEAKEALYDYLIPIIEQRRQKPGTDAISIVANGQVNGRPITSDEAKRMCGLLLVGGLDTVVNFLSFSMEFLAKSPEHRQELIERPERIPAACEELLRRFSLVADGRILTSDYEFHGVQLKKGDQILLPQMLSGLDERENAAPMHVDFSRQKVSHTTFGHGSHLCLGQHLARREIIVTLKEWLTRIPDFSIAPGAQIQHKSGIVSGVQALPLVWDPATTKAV
T5 sequence (P00259 whole entry, further chain): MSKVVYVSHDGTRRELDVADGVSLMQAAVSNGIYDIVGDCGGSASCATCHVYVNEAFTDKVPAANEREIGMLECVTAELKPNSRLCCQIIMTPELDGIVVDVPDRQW
T5 sequence (P16640 whole entry, further chain): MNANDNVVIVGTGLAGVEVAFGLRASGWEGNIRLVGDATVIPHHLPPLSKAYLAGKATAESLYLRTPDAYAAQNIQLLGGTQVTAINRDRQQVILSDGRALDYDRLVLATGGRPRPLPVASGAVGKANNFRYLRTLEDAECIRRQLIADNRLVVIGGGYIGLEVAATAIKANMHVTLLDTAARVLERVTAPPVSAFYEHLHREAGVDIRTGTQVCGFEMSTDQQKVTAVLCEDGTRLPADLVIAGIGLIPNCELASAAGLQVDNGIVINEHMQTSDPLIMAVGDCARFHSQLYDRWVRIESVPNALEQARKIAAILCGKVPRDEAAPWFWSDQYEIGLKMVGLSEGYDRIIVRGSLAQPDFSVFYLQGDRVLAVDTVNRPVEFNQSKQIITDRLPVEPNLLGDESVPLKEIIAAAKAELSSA
T4 sequence (P00183 2-415 Y97A/C335A): as the sequence (P00183 2-415 Y97V/C335A) above, with V96A counted along it
T4 sequence (P00259 whole entry, further chain): as the sequence (P00259 whole entry, further chain) above
T4 sequence (P16640 whole entry, further chain): as the sequence (P16640 whole entry, further chain) above
Sequence of P450cam Mutant Y96A (P00183 2-415 Y97A/C335A): as the sequence (P00183 2-415 Y97V/C335A) above, with V96A counted along it
Sequence of P450cam Mutant Y96A (P16640 whole entry, further chain): as the sequence (P16640 whole entry, further chain) above
Sequence of P450cam Mutant Y96A (P00259 whole entry, further chain): as the sequence (P00259 whole entry, further chain) above
T7 sequence (P00183 2-415 Y97A/C335A): as the sequence (P00183 2-415 Y97V/C335A) above, with V96A counted along it
T7 sequence (P16640 whole entry, further chain): as the sequence (P16640 whole entry, further chain) above
T7 sequence (P00259 whole entry, further chain): as the sequence (P00259 whole entry, further chain) above
T6 sequence (P00183 2-415 Y97L/C335A): as the sequence (P00183 2-415 Y97V/C335A) above, with V96L counted along it
T6 sequence (P16640 whole entry, further chain): as the sequence (P16640 whole entry, further chain) above
T6 sequence (P00259 whole entry, further chain): as the sequence (P00259 whole entry, further chain) above
T2 sequence (P00183 whole entry): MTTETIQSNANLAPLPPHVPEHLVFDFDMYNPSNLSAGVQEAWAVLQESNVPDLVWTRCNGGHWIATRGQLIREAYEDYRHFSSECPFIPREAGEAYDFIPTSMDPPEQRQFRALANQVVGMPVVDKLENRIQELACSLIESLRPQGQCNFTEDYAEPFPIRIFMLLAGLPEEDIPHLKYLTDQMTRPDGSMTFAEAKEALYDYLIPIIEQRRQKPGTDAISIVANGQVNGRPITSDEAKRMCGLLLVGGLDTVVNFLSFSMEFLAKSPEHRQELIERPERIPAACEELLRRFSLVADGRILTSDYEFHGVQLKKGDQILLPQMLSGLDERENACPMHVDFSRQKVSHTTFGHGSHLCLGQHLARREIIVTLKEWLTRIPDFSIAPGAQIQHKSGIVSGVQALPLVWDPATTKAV
T2 sequence (P00259 whole entry, further chain): as the sequence (P00259 whole entry, further chain) above
T2 sequence (P16640 whole entry, further chain): as the sequence (P16640 whole entry, further chain) above
T3 sequence (P16640 whole entry): as the sequence (P16640 whole entry, further chain) above
T3 sequence (P00183 2-415 Y97F/C335A): as the sequence (P00183 2-415 Y97V/C335A) above, with V96F counted along it
T3 sequence (P00259 whole entry, further chain): as the sequence (P00259 whole entry, further chain) above
T1 sequence (P00259 whole entry): as the sequence (P00259 whole entry, further chain) above
T1 sequence (P16640 whole entry, further chain): as the sequence (P16640 whole entry, further chain) above
T1 sequence (P00183 whole entry): as the sequence (P00183 whole entry) above

## c1ccc(C2CCCCC2)cc1 [Cyclohexylbenzene]
P450cam WT; substrate cyclohexylbenzene
  Total products WT: 0.8 area/10^5
P450cam Mutant Y96A; [10]
  Mutant Y96A ΔSpin high/low: 80
Wild type P450cam [1]
  Wild type Vs DTT: 20
  Wild type ΔSpin high/low: 20
[2]; substrate cyclohexylbenzene
  Total products Y96F: 1.1 area/10^5
[3]; substrate cyclohexylbenzene
  Total products Y96A: 7.4 area/10^5
[4]
  Total products Y96V: 12.5 area/10^5
[5]
  Total products Y96L: 10.4 area/10^5

## OC1C=C(c2ccccc2)CCC1 (stereo not drawn) [3-ol (B)]
P450cam WT; substrate phenylcyclohexene
  Products (%) WT: 76%
[3]; substrate phenylcyclohexene
  Products(%) Y96A: 75%

## O=C1C=C(c2ccccc2)CCC1 [3-one (A)]
P450cam WT; substrate phenylcyclohexene
  Products (%) WT: 24%
[3]; substrate phenylcyclohexene
  Products(%) Y96A: 25%

## CCC(C)CC [3-methyl pentane]
Wild type P450cam [6]
  Turnover rate (NADH consumption rate) Wild type: 1.3 nmole NADH/nmole P450cam/s
[7]
  Turnover rate (NADH consumption rate) Y96A: 14.2 nmole NADH/nmole P450cam/s

## O[C@H]1CC[C@H](c2ccccc2)CC1 [Trans-4-ol]
P450cam WT; substrate cyclohexylbenzene
  Products (%) WT: 25%
[2]; substrate cyclohexylbenzene
  Products(%) Y96F: 6%
[3]; substrate cyclohexylbenzene
  Products(%) Y96A: 15%
[4]
  Products (%) Y96V: 10%
[5]
  Products (%) Y96L: 23%

## CCC(C)C [2-methyl butane]
Wild type P450cam [6]
  Turnover rate (NADH consumption rate) Wild type: background
[7]
  Turnover rate (NADH consumption rate) Y96A: 4.6 nmole NADH/nmole P450cam/s

## CCCC(C)CCC [4-methyl heptane]
Wild type P450cam [6]
  Turnover rate (NADH consumption rate) Wild type: 1.4 nmole NADH/nmole P450cam/s
[7]
  Turnover rate (NADH consumption rate) Y96A: 10.2 nmole NADH/nmole P450cam/s

## OC1CCCC(c2ccccc2)C1 (single isomer, unassigned) [3-ol]
P450cam WT; substrate cyclohexylbenzene
  Products (%) WT: 43%
[2]; substrate cyclohexylbenzene
  Products(%) Y96F: 54%
[3]; substrate cyclohexylbenzene
  Products(%) Y96A: 20%
[4]
  Products (%) Y96V: 28%
[5]
  Products (%) Y96L: 38%

## C1CCCCCC1 [cycloheptane]
Wild type P450cam [6]
  Turnover rate (NADH consumption rate) Wild type: 4.4 nmole NADH/nmole P450cam/s
[7]
  Turnover rate (NADH consumption rate) Y96A: 42.5 nmole NADH/nmole P450cam/s

## CCCCC(C)C [2-methyl hexane]
Wild type P450cam [6]
  Turnover rate (NADH consumption rate) Wild type: background
[2]; substrate 2-methyl hexane
  Relative activity (WT = 1) Y96F: 2.3
[3]; substrate 2-methyl hexane
  Relative activity (WT = 1) Y96A: 2.6
[7]
  Turnover rate (NADH consumption rate) Y96A: 10.6 nmole NADH/nmole P450cam/s

## CCCCCCCC [n-Octane]
P450cam Mutant Y96A
  Mutant Y96A Vs DTT: 45
P450cam Mutant Y96A; [10]
  Mutant Y96A ΔSpin high/low: 80
Wild type P450cam [1]
  Wild type Vs DTT: 5
Wild type P450cam [6]
  Turnover rate (NADH consumption rate) Wild type: background
[7]
  Turnover rate (NADH consumption rate) Y96A: 5.8 nmole NADH/nmole P450cam/s

## CCC(CC)CC [3-ethyl pentane]
Wild type P450cam [6]
  Turnover rate (NADH consumption rate) Wild type: background
[7]
  Turnover rate (NADH consumption rate) Y96A: 16.2 nmole NADH/nmole P450cam/s

## CCCCC [n-Pentane]
P450cam Mutant Y96A
  Mutant Y96A Vs DTT: 40
P450cam Mutant Y96A; [10]
  Mutant Y96A ΔSpin high/low: 55
Wild type P450cam [1]
  Wild type Vs DTT: 5
Wild type P450cam [6]
  Turnover rate (NADH consumption rate) Wild type: background
[7]
  Turnover rate (NADH consumption rate) Y96A: 5.8 nmole NADH/nmole P450cam/s

## CCCCCCC [n-Heptane]
P450cam Mutant Y96A
  Mutant Y96A Vs DTT: 40
P450cam Mutant Y96A; [10]
  Mutant Y96A ΔSpin high/low: 60
Wild type P450cam [1]
  Wild type Vs DTT: 5
  Wild type ΔSpin high/low: 5
Wild type P450cam [6]
  Turnover rate (NADH consumption rate) Wild type: 2.7 nmole NADH/nmole P450cam/s
[7]
  Turnover rate (NADH consumption rate) Y96A: 4.4 nmole NADH/nmole P450cam/s

## O[C@H]1CC[C@@H](c2ccccc2)CC1 [Cis-4-ol]
P450cam WT; substrate cyclohexylbenzene
  Products (%) WT: 12%
[2]; substrate cyclohexylbenzene
  Products(%) Y96F: 13%
[3]; substrate cyclohexylbenzene
  Products(%) Y96A: 45%
[4]
  Products (%) Y96V: 23%
[5]
  Products (%) Y96L: 16%

## CC(C)CC(C)(C)C [2,2,4-trimethyl pentane]
Wild type P450cam [6]
  Turnover rate (NADH consumption rate) Wild type: 0.9 nmole NADH/nmole P450cam/s
[7]
  Turnover rate (NADH consumption rate) Y96A: 5.3 nmole NADH/nmole P450cam/s

## CCCC(C)C [2-methyl pentane]
Wild type P450cam [6]
  Turnover rate (NADH consumption rate) Wild type: 3.8 nmole NADH/nmole P450cam/s
[7]
  Turnover rate (NADH consumption rate) Y96A: 11.7 nmole NADH/nmole P450cam/s

## CC(C)C(C)C [2,3-dimethyl butane]
Wild type P450cam [6]
  Turnover rate (NADH consumption rate) Wild type: background
[7]
  Turnover rate (NADH consumption rate) Y96A: 16.8 nmole NADH/nmole P450cam/s

## CC(C)CC(C)C [2,4-dimethyl pentane]
Wild type P450cam [6]
  Turnover rate (NADH consumption rate) Wild type: 0.2 nmole NADH/nmole P450cam/s
[7]
  Turnover rate (NADH consumption rate) Y96A: 12.6 nmole NADH/nmole P450cam/s

## OC1CCCC(c2ccccc2)C1 (stereo not drawn) [L or D 3-ol]
P450cam WT; substrate cyclohexylbenzene
  Products (%) WT: 20%
[2]; substrate cyclohexylbenzene
  Products(%) Y96F: 27%
[3]; substrate cyclohexylbenzene
  Products(%) Y96A: 20%
[4]
  Products (%) Y96V: 39%
[5]
  Products (%) Y96L: 23%

## CCCCCC [Hexane]
P450cam Mutant Y96A
  Mutant Y96A Vs DTT: 60 and 40
  Mutant Y96A ΔSpin high/low: 70 and 60
Wild type P450cam [6]
  Turnover rate (NADH consumption rate) Wild type: background
[2]; substrate hexane
  Relative activity (WT = 1) Y96F: 18.2
[3]; substrate hexane
  Relative activity (WT = 1) Y96A: 25.5
[7]
  Turnover rate (NADH consumption rate) Y96A: 6.0 nmole NADH/nmole P450cam/s

B1: wild-type P-450cam: mono-oxygenase cytochrome P-450cam from P. putida (protein, UniProt P00183 2-415, looked up)
Camphor 5-monooxygenase: TTETIQSNANLAPLPPHVPEHLVFDFDMYNPSNLSAGVQEAWAVLQESNVPDLVWTRCNGGHWIATRGQLIREAYEDYRHFSSECPFIPREAGEAYDFIPTSMDPPEQRQFRALANQVVGMPVVDKLENRIQELACSLIESLRPQGQCNFTEDYAEPFPIRIFMLLAGLPEEDIPHLKYLTDQMTRPDGSMTFAEAKEALYDYLIPIIEQRRQKPGTDAISIVANGQVNGRPITSDEAKRMCGLLLVGGLDTVVNFLSFSMEFLAKSPEHRQELIERPERIPAACEELLRRFSLVADGRILTSDYEFHGVQLKKGDQILLPQMLSGLDERENACPMHVDFSRQKVSHTTFGHGSHLCLGQHLARREIIVTLKEWLTRIPDFSIAPGAQIQHKSGIVSGVQALPLVWDPATTKAV
[8]
  dimerisation and aggregation upon storage: dimerisation as well as aggregation
[9]
  presence of protein dimer: dimer was detected

B2: C85A: P-450cam surface mutant, cysteine 85 substituted to alanine (protein, UniProt P00183 2-415, looked up, variant C85A)
Camphor 5-monooxygenase: B1 Camphor 5-monooxygenase with C85A
[8]
  dimerisation and aggregation upon storage: dimerisation as well as aggregation
[9]
  presence of protein dimer: dimer was detected

B3: C136A: P-450cam surface mutant, cysteine 136 substituted to alanine (protein, UniProt P00183 2-415, looked up, variant C136A)
Camphor 5-monooxygenase: B1 Camphor 5-monooxygenase with C136A
[8]
  dimerisation and aggregation upon storage: dimerisation as well as aggregation
[9]
  presence of protein dimer: dimer was detected

B4: C58A: P-450cam surface mutant, cysteine 58 substituted to alanine (protein, UniProt P00183 2-415, looked up, variant C58A)
Camphor 5-monooxygenase: B1 Camphor 5-monooxygenase with C58A
[8]
  dimerisation and aggregation upon storage: dimerisation as well as aggregation
[9]
  presence of protein dimer: dimer was detected
